In US11786534B2 (TAIHO PHARMACEUTICAL CO., LTD., priority 2019, dated 2023) one finds GI50 and IC50 data, which are given here for two molecules.

Some results are limits rather than exact numbers.

The target in assay [1] is Ba/F3-EGFR (L858R/T790M/C797S) (Homo sapiens, UniProt P00533, T790M/C797S/L858R, cells depend on it). The assay is described as follows: Growth inhibition of cell line expressing EGFR (L858R/T790M/C797S). In kind it is cell-based, mouse. As to conditions: Test Example 4, Table 13; same procedures as Test Example 2; read-out: BaF3_EGFR (L858R/T790M/C797S) IC50 value. The text has this: (§1) Test for inhibitory activity against the growth of cell lines expressing wild-type and mutated EGFRs (in vitro)
(§2) (1) Mouse cell line Ba/F3-EGFR (d746-750/T790M/C797S) transfected with and stably expressing EGFR (d746-750/T790M/C797S), mouse cell Ba/F3-EGFR (L858R/T790M/C797S) transfected with and stably expressing EGFR (L858R/T790M/C797S), and mouse cell line Ba/F3-EGFR (WT) transfected with and stably expressing wild-type EGFR were each suspended in RPMI-1640 cell culture medium (RPMI-1640, 10% FBS, 100 unit/ml penicillin, 0.1 mg/ml streptomycin). In the case of the mouse cell line Ba/F3-EGFR (WT), RPMI-1640 cell culture medium containing EGF at a final concentration of 50 ng/ml was used to suspend this cell line. It should be noted that the mouse cell line Ba/F3-EGFR (d746-750/T790M/C797S) transfected with and stably expressing EGFR (d746-750/T790M/C797S), the mouse cell line Ba/F3-EGFR (L858R/T790M/C797S) transfected with and stably expressing EGFR (L858R/T790M/C797S) and the mouse cell line Ba/F3-EGFR (WT) transfected with and stably expressing wild-type EGFR were prepared by using nucleotide sequences encoding the proteins of SEQ ID NOs: 1 and 2 in accordance with Test Example 1 in WO2018/079310, These cell suspensions were seeded in wells of 96-well flat -bottomed plates. The compounds of the present invention were dissolved in DMSO, and serial dilutions of these test compounds were prepared with DMSO (1000-fold of the final concentration). Each test compound solution in DMSO or DMSO alone was diluted with RPMI-1640 cell culture medium for each cell line, and this dilution was added to wells of the cell culture plate such that the final concentration of DMSO was 0.1%, followed by culture at 37° C. for 3 days in a 5% carbon dioxide gas-containing incubator. Before and after addition of each test compound solution in DMSO, the number of cells was counted using the CellTiter-Glo® system (Promega) on the basis of the protocol recommended by Promega.
(§3) In each cell line, the rate of cell growth inhibition was calculated according to the equation shown below in wells to which each test compound was added at different concentrations. Moreover, the inhibition rate at each concentration was plotted for each test compound, and the concentration of each test compound required to give 50% cell survival rate, i.e., IC50 (nM) was determined by curve fitting software XLfit (IDBS).
(§4) Cell survival rate (%)=T/C×100
(§5) T: emission intensity in a well cultured for 3 days after addition of a test compound solution
(§6) C: emission intensity in a well cultured for 3 days after addition of DMSO
(§7) In accordance with the same procedures as shown in Test Example 2, the compounds of the present invention were tested for their inhibitory activity against the growth of the cell hoes expressing wild-type and mutated EGFRs.

The target in another assay is Ba/F3-EGFR (WT) (Homo sapiens, UniProt P00533). Briefly: Growth inhibition of cell line expressing wild-type EGFR. It is filed as cell-based, mouse. As to conditions: Test Example 4, Table 13; same procedures as Test Example 2; read-out: BaF3_EGFR (WT) IC50 value.
Source text: as §1, §2, §3, §4, §5, §6, §7

Assay [2] addresses Ba/F3-EGFR (d746-750/T790M/C797S) (Homo sapiens, UniProt P00533, DEL746-750/T790M/C797S, cells depend on it). The assay is described as follows: Growth inhibition of cell line expressing EGFR (d746-750/T790M/C797S). It is filed as cell-based, mouse. As to conditions: Test Example 4, Table 13; same procedures as Test Example 2; read-out: BaF3_EGFR (d746-750/T790M/C797S) IC50 value.
Source text: as §1, §2, §3, §4, §5, §6, §7

Assay [3] addresses T1, human EGFR (L858R/T790M/C797S) (Homo sapiens, UniProt P00533, C797S/L858R/T790M).
T1 construct: made in house; host or cells: Sf9 insect cells, baculovirus
Briefly: Inhibitory activity against EGFR (L858R/T790M/C797S) kinase. It is filed as biochemical. As to conditions: Test Example 1, Table 3; ATP 0.5 μM. Put shortly:
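GST-tagged cytoplasmic domain of human EGFR L858R/T790M/C797S, expressed in Sf9 insect cells via baculovirus and glutathione-purified. Kinase reaction run at 0.5 μM ATP final; IC50 (nM) determined per compound.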

In assay [4] the target is T2, human EGFR (d746-750/T790M/C797S) (Homo sapiens, UniProt P00533, C797S/DEL746-750/T790M).
T2 construct: made in house; host or cells: Sf9 insect cells, baculovirus
The assay is described as follows: Inhibitory activity against EGFR (d746-750/T790M/C797S) kinase. As to conditions: Test Example 1, Table 2; ATP 6 μM, 25° C., 120 minutes. In kind it is biochemical. Put shortly:
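GST-fused cytoplasmic domain of human EGFR d746-750/T790M/C797S (Sf9-expressed) was incubated with 250 nM biotinylated peptide, 6 μM ATP, 10 mM MgCl2 and 10 mM MnCl2 (2.5% DMSO) for 120 min at 25 °C. After an EDTA stop, phosphotyrosine was detected by Eu-PT66/SureLight APC-SA TR-FRET (665/620 nm, excitation 337 nm). Background wells received EDTA before enzyme.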

The target of the next assay is T3, human EGFR (L858R/C797S) (Homo sapiens, UniProt P00533, C797S/L858R).
T3 construct: purchased SignalChem
The assay is described as follows: Inhibitory activity against EGFR (L858R/C797S) kinase. In kind it is biochemical. As to conditions: Test Example 1, Table 5; ATP 4 μM, 90 minutes. Put shortly:
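Purified recombinant human EGFR (C797S/L858R) kinase, final ATP 4 μM, 90-minute kinase reaction, otherwise per the EGFR (d746-750/C797S) protocol. IC50 (nM) determined from inhibition data.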

Assay [5] deals with T4, human EGFR (d746-750/C797S) (Homo sapiens, UniProt P00533, C797S/DEL746-750).
T4 construct: purchased SignalChem
The assay is described as follows: Inhibitory activity against EGFR (d746-750/C797S) kinase. It is filed as biochemical. As to conditions: Test Example 1, Table 4; ATP 14 μM, 60 minutes. Put shortly: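 Recombinant human EGFR d746-750/C797S in 13.5 mM Tris pH 7.5 with 2 mM DTT and 0.009% Tween-20. Reaction ran 60 min with 14 μM ATP, 20 mM MgCl2 and 12.5 mM MnCl2, stopped by 40 mM EDTA. IC50 in nM.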

In another assay the target is T5, human EGFR (WT) (Homo sapiens, UniProt P00533).
T5 construct: purchased Carna Biosciences Inc., Japan
The assay is described as follows: Inhibitory activity against EGFR (WT) kinase. It is filed as biochemical. The conditions noted are these: Test Example 1, Table 6; ATP 1.5 μM. Put shortly: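 Purified recombinant human wild-type EGFR kinase, with ATP at 1.5 μM final. Compound inhibition of kinase activity read out and fitted to give IC50 (nM).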

For the molecule `C#Cc1c(-c2cnc3ccccc3c2)c2c(N)ncnc2n1C12CCC(NC(=O)c3cnco3)(CC1)C2` [Example 47], the GI50 in assay [1] was 382 nM; on Ba/F3-EGFR (WT) it was 2060 nM; in assay [2], 33 nM.

As to “N-4-(4-Amino-6-ethynyl-5-(quinolin-3-yl)-7H-pyrrolo[2,3-d]pyrimidin-7-yl)bicyclo -[2.2.1]heptane-1-yl)oxazole-5-carboxamide [Example 47]”, the IC50 in assay [3] is 0.59 nM; in assay [4], less than 0.3 nM; on human EGFR (L858R/C797S) it was 0.36 nM; in assay [5], 0.33 nM; at human EGFR (WT), 0.41 nM.
